Results on eight compounds are retold here after patent US20240309015A1, “Methods for the Treatment of Fibrotic Disease” (SHY Therapeutics, LLC, priority 2021, published 2024).

The subject of one experiment is KRas wild type. Nature of the experiment: Ras GTP Binding Domain Inhibition Assay, KRas wild type. To be noted: at 20 μM; for KRas wild type + SOS: % inh.: with SOS; for KRas wild type: % inh.: without SOS. Here is the method:
(§1) A Ras Superfamily Activity Assay (as disclosed in International Application No. PCT/US2018/038613, filed Jun. 20, 2018, which is incorporated by reference in its entirety) was used as a specific assay to evaluate compounds against the following for the following Ras Superfamily proteins: KRas wild type, KRas Q61H mutant, KRas G12C mutant, KRas G12D mutant, Rac-1, and Rho-A.
(§2) Buffer-I: • 25 mM Tris-HCl, pH 7.4 • 27 mM KCl • 137 mM NaCl • 1 mM MgCl2 • 1 mM DTT
(§3) Buffer-IL: • 50 mM Tris-HCl, pH 7.0 • 1 mM MgCl2 • 1 mM DTT
(§4) The small GTPases proteins: KRas wild type. KRas Q61H mutant, KRas G12C mutant, KRas G12D mutants, Rac-1, and Rho-A were expressed as His-tagged proteins. In addition, the Guanosine nucleotide Exchange Factor (GEF) Sos protein (residues 556-1049) was expressed as a His-tagged protein. In cells, the guanine nucleotide exchange factor Sos protein promotes activation of Ras proteins by stimulating an exchange of GDP for GTP. The inclusion of Sos to the Ras GTP binding domain inhibition assay may be considered as an alternative representation of physiological cellular conditions for evaluating the inhibitory activity of some of the tested small molecules.
(§5) For the assay, all purified small GTPases proteins were diluted in Buffer-I or Buffer-II to a final concentration of 10-30 μg/mL. 200 μL of each diluted protein was added to a nickel-coated 96-well plate and incubated overnight at 4° C. Then the protein solution was discarded and 200 μL of Buffer-I or Buffer-II was added to each well in the presence of 1% DMSO. Compounds to be tested were added to the protein-coated wells at final concentration of 20 μM, and incubated for 3 hours at room temperature with and without 10-30 μg/mL of Sos added to the final hour of the incubation. When performing IC50 measurements a serial dilution of all tested concentrations was added. Then Cy3-GTP or Cy5-GTP was added to each well to a final concentration of 100 nM. The labeled GTP was incubated for 45 minutes at room temperature. Following GTP incubation, wells were washed 3× in Buffer-I or Buffer-II and 200 μL of Buffer-I or Buffer-II was added to each well. Following washes, the amount of bound labeled-GTP was measured using a SpectraMax M3 (Molecular Devices).

The next experiment deals with IL-6. Nature of the experiment: Mouse IL6 Quantification Assay (LPS-stimulated RAW 264.7). To be noted: RAW264.7, ELISA, read-out: IL-6: % inh. The arrangement: dose or concentration left out as unconfirmed. The class given is cell-based.
The test system of another experiment is Rho-A. The experiment can be described thus: Ras GTP Binding Domain Inhibition Assay, Rho-A. As to conditions: at 20 μM; for Rho-A: % inh.: without SOS; for Rho-A + SOS: % inh.: with SOS. Here is the method:
as §1, §2, §3, §4, §5

A further experiment has as its system KRas G12C mutant. Nature of the experiment: Ras GTP Binding Domain Inhibition Assay, KRas G12C mutant. To be noted: at 20 μM; for KRas G12C mutant + SOS: % inh.: with SOS; for KRas G12C mutant: % inh.: without SOS. Here is the method:
as §1, §2, §3, §4, §5

Another experiment has as its system TNFα. The experiment can be described thus: Mouse TNF Alpha Quantification Assay (LPS-stimulated RAW 264.7). The class given is cell-based. Further details: dose or concentration left out as unconfirmed. As to conditions: RAW264.7, ELISA, read-out: TNFα: % inh.
A further experiment deals with KRas G12D mutant. Nature of the experiment: Ras GTP Binding Domain Inhibition Assay, KRas G12D mutant. To be noted: at 20 μM; for KRas G12D mutant + SOS: % inh.: with SOS; for KRas G12D mutant: % inh.: without SOS. Here is the method:
as §1, §2, §3, §4, §5

For the compound `COCC1CN(c2nc(-c3nccn3C)nc3sc(-c4ccn(C(C)C)n4)c(C)c23)CCO1` (racemic) [Compound 15, rac-4-(6-(1-Isopropyl-1H-pyrazol-3-yl)-5-methyl-2-(1-methyl-1H-imidazol-2-yl)thieno[2,3-d]pyrimidin-4-yl)-2-(methoxymethyl)morpholine], in the experiment on KRas wild type, the “KRas wild type + SOS: % inh.” value is “D (D = 76-100% inhibition)” and the “KRas wild type: % inh.” value was “D (D = 76-100% inhibition)”. Besides, the inhibition in the experiment with IL-6 is 46 to 75%. Also, the “Rho-A: % inh.” value in the experiment with Rho-A is on record as “D (D = 76-100% inhibition)”. Also, in the experiment with KRas G12C mutant, the “KRas G12C mutant + SOS: % inh.” value is reported as “D (D = 76-100% inhibition)” and the “KRas G12C mutant: % inh.” value is on record as “C (C = 46-75% inhibition)”. For the same compound, the inhibition in the experiment on TNFα was in the range of 76 to 100%. Besides, in the experiment on KRas G12D mutant (Table 7), the “KRas G12D mutant + SOS: % inh.” value is “D (D = 76-100% inhibition)” and the “KRas G12D mutant: % inh.” value is recorded as “D (D = 76-100% inhibition)”. Moreover, in the experiment with KRas G12D mutant (Table 8), the “KRas G12D mutant + SOS: % inh.” value is reported as “D (D = 76-100% inhibition)” and the “KRas G12D mutant: % inh.” value is “D (D = 76-100% inhibition)”.
Turning to `COCCNc1nc(-c2cn(C)cn2)nc2sc(-c3cccc(OC)c3Cl)c(-c3ccc(OC)cc3)c12` [Compound 8, 6-(2-Chloro-3-methoxyphenyl)-N-(2-methoxyethyl)-5-(4-methoxyphenyl)-2-(1-methyl-1H-imidazol-4-yl)thieno[2,3-d]pyrimidin-4-amine], in the experiment on KRas wild type, the “KRas wild type + SOS: % inh.” value is reported as “D (D = 76-100% inhibition)” and the “KRas wild type: % inh.” value is recorded as “C (C = 46-75% inhibition)”. Besides, in the experiment with Rho-A, the “Rho-A + SOS: % inh.” value was “C (C = 46-75% inhibition)” and the “Rho-A: % inh.” value was “C (C = 46-75% inhibition)”. Besides, in the experiment on KRas G12C mutant, the “KRas G12C mutant + SOS: % inh.” value is “D (D = 76-100% inhibition)” and the “KRas G12C mutant: % inh.” value is reported as “B (B = 26-45% inhibition)”. Further, in the experiment with KRas G12D mutant (Table 7), the “KRas G12D mutant + SOS: % inh.” value is “B (B = 26-45% inhibition)” and the “KRas G12D mutant: % inh.” value is given as “B (B = 26-45% inhibition)”. In addition, in the experiment on KRas G12D mutant (Table 8), the “KRas G12D mutant + SOS: % inh.” value is given as “B (B = 26-45% inhibition)” and the “KRas G12D mutant: % inh.” value is listed as “B (B = 26-45% inhibition)”.
On to `CO[C@H]1CC[C@@H](Nc2nc(-c3nccn3C)nc3sc(-c4ccn(C(C)C)n4)c(C)c23)C1` (racemic) [Compound 12, rac-6-(1-Isopropyl-1H-pyrazol-3-yl)-N-((1R,3S)-3-methoxycyclopentyl)-5-methyl-2-(1-methyl-1H-imidazol-2-yl)thieno[2,3-d]pyrimidin-4-amine], for which, in the experiment on KRas wild type, the “KRas wild type + SOS: % inh.” value is “D (D = 76-100% inhibition)” and the “KRas wild type: % inh.” value is reported as “D (D = 76-100% inhibition)”. Besides, in the experiment with Rho-A, the “Rho-A + SOS: % inh.” value is “D (D = 76-100% inhibition)” and the “Rho-A: % inh.” value is recorded as “D (D = 76-100% inhibition)”. In the experiment on KRas G12C mutant, the “KRas G12C mutant + SOS: % inh.” value is recorded as “D (D = 76-100% inhibition)” and the “KRas G12C mutant: % inh.” value was “C (C = 46-75% inhibition)”. Moreover, in the experiment on KRas G12D mutant (Table 7), the “KRas G12D mutant + SOS: % inh.” value is reported as “C (C = 46-75% inhibition)” and the “KRas G12D mutant: % inh.” value is given as “C (C = 46-75% inhibition)”. In the experiment with KRas G12D mutant (Table 8), the “KRas G12D mutant + SOS: % inh.” value is given as “C (C = 46-75% inhibition)” and the “KRas G12D mutant: % inh.” value is “C (C = 46-75% inhibition)”.
For the compound `COCCN(C)c1nc(-c2nccn2C)nc2sc(-c3ccccc3)c(-c3ccccc3)c12` [Compound 2, N-(2-Methoxyethyl)-N-methyl-2-(1-methyl-1H-imidazol-2-yl)-5,6-diphenylthieno[2,3-d]pyrimidin-4-amine], the “KRas wild type: % inh.” value in the experiment on KRas wild type is on record as “C (C = 46-75% inhibition)”. The “Rho-A: % inh.” value with Rho-A is given as “B (B = 26-45% inhibition)”. The “KRas G12C mutant: % inh.” value with KRas G12C mutant is “B (B = 26-45% inhibition)”. The “KRas G12D mutant: % inh.” value with KRas G12D mutant (Table 7) and in the experiment on KRas G12D mutant (Table 8) was “C (C = 46-75% inhibition)” in each case.
As for `COCCNc1nc(-c2nccn2C)nc2sc(-c3ccccc3)c(-c3ccccc3Cl)c12` [Compound 4, 5-(2-Chlorophenyl)-N-(2-methoxyethyl)-2-(1-methyl-1H-imidazol-2-yl)-6-phenylthieno[2,3-d]pyrimidin-4-amine], the “KRas wild type: % inh.” value with KRas wild type was “A (A = 1-25% inhibition)”. Moreover, the “Rho-A: % inh.” value with Rho-A was “B (B = 26-45% inhibition)”. Also, in the experiment with KRas G12C mutant, the “KRas G12C mutant: % inh.” value is recorded as “B (B = 26-45% inhibition)”. In addition, the “KRas G12D mutant: % inh.” value in the experiment with KRas G12D mutant (Table 7) and in the experiment on KRas G12D mutant (Table 8) was “B (B = 26-45% inhibition)” throughout.
As for `COCCn1ccnc1-c1nc(N[C@H]2C[C@@H](OC)C2)c2c(-c3ccccc3)c(-c3ccn(C)n3)sc2n1` [Compound 13, N-((1s,3s)-3-methoxycyclobutyl)-2-(1-(2-methoxyethyl)-1H-imidazol-2-yl)-6-(1-methyl-1H-pyrazol-3-yl)-5-phenylthieno[2,3-d]pyrimidin-4-amine], in the experiment with KRas wild type, the “KRas wild type + SOS: % inh.” value was “D (D = 76-100% inhibition)” and the “KRas wild type: % inh.” value was “D (D = 76-100% inhibition)”. In the experiment on Rho-A, the “Rho-A + SOS: % inh.” value is reported as “D (D = 76-100% inhibition)” and the “Rho-A: % inh.” value is given as “D (D = 76-100% inhibition)”. In addition, in the experiment with KRas G12C mutant, the “KRas G12C mutant + SOS: % inh.” value is listed as “D (D = 76-100% inhibition)” and the “KRas G12C mutant: % inh.” value is given as “D (D = 76-100% inhibition)”. In addition, in the experiment with KRas G12D mutant (Table 7), the “KRas G12D mutant + SOS: % inh.” value is “D (D = 76-100% inhibition)” and the “KRas G12D mutant: % inh.” value is listed as “C (C = 46-75% inhibition)”. In addition, in the experiment on KRas G12D mutant (Table 8), the “KRas G12D mutant + SOS: % inh.” value was “D (D = 76-100% inhibition)” and the “KRas G12D mutant: % inh.” value is “C (C = 46-75% inhibition)”.
In the case of `CO[C@H]1CNC[C@@H](Nc2nc(-c3nccn3C)nc3sc(-c4ccn(C(C)C)n4)cc23)C1` [Compound 28, 6-(1-Isopropyl-1H-pyrazol-3-yl)-N-((3S,5R)-5-methoxypiperidin-3-yl)-2-(1-methyl-1H-imidazol-2-yl)thieno[2,3-d]pyrimidin-4-amine], the inhibition in the experiment with IL-6 lay within 76 to 100%; in the experiment on TNFα it was 46 to 75%.
Turning to `COc1cccc(-c2sc3nc(-c4nccn4C)nc(NC4CCC(OC)C4)c3c2C)c1F` (racemic) [Compound 10, rac-6-(2-Fluoro-3-methoxyphenyl)-N-((1R,3S)-3-methoxycyclopentyl)-5-methyl-2-(1-methyl-1H-imidazol-2-yl)thieno[2,3-d]pyrimidin-4-amine and rac-6-(2-Fluoro-3-methoxyphenyl)-N-((1R,3R)-3-methoxycyclopentyl)-5-methyl-2-(1-methyl-1H-imidazol-2-yl)thieno[2,3-d]pyrimidin-4-amine], in the experiment with KRas wild type, the “KRas wild type + SOS: % inh.” value was “C (C = 46-75% inhibition)” and the “KRas wild type: % inh.” value is “C (C = 46-75% inhibition)”. In the experiment on Rho-A, the “Rho-A + SOS: % inh.” value is reported as “D (D = 76-100% inhibition)” and the “Rho-A: % inh.” value was “D (D = 76-100% inhibition)”. Further, in the experiment with KRas G12C mutant, the “KRas G12C mutant + SOS: % inh.” value is “C (C = 46-75% inhibition)” and the “KRas G12C mutant: % inh.” value was “D (D = 76-100% inhibition)”. In the experiment on KRas G12D mutant (Table 7), the “KRas G12D mutant + SOS: % inh.” value is “C (C = 46-75% inhibition)” and the “KRas G12D mutant: % inh.” value was “D (D = 76-100% inhibition)”. Moreover, in the experiment with KRas G12D mutant (Table 8), the “KRas G12D mutant + SOS: % inh.” value was “C (C = 46-75% inhibition)” and the “KRas G12D mutant: % inh.” value is listed as “D (D = 76-100% inhibition)”.
